Tests used:
Format in all cases: cell-based
[1] = system: KRAS G12D mutant human pancreatic cancer cell Panc 04.03; assay: 3D cell proliferation inhibition assay, Panc 04.03; settings: 168 h, Panc 04.03, 7 days, CTG
How it was run: (§1)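 Cells were seeded at 5×10^2 cells/well in low-adsorption plates with compound (10000–0.026 nM final, 0.2% DMSO) and grown for 7 days at 37 °C, 5% CO2. Viability was read by CTG luminescence after 60 min at room temperature. IC50 came from log concentration–inhibition curve fits, normalised to DMSO and medium-only controls.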

[2] = system: KRAS G12D mutant human metastatic pancreatic cancer cell AsPc-1; assay: 3D cell proliferation inhibition assay, AsPc-1; settings: ASPC1, 168 h, AsPc-1, 7 days, CTG
How it was run: as §1

KRAS-G12D [3] = molecular target: T1, KRAS-G12D (Homo sapiens, UniProt P01116, G12D); assay: KRAS-G12D degradation assay (Western Blot), A-427 cells; settings: A427 cells, 24 h; for Dmax: A-427
T1 construct: endogenous in cells; host or cells: A-427 (ATCC), AGS, AsPc-1, Panc 04.03
T1 sequence (P01116 1-188 isoform P01116-2 G12D): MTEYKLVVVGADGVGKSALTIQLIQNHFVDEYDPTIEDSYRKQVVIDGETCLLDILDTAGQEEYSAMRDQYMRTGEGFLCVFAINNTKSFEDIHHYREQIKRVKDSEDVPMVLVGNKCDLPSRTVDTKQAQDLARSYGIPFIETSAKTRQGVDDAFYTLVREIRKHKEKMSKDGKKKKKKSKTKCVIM
How it was run: (§2)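 Each KRAS G12D mutant line (A-427, AGS, AsPc-1, Panc 04.03) was seeded at 5×10^5 cells/well and treated 24 h at 37 °C with 0.03–3000 nM compound (final DMSO 0.25%). KRAS in lysates was measured by Western blot, normalized to β-actin and compared with controls, giving DC50 and Dmax from curve fits.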

KRAS-G12D [4] = molecular target: T1, KRAS-G12D; assay: KRAS-G12D degradation assay (Western Blot), AsPc-1 cells; settings: for DC50: 24 h; for Dmax: ASPC1, 24 h
How it was run: as §2

[5] = system: KRAS G12D mutant human pancreatic cancer cell HPAC; assay: 3D cell proliferation inhibition assay, HPAC; settings: 168 h, 7 days, CTG
How it was run: as §1

KRAS-G12D [6] = molecular target: T1, KRAS-G12D; assay: KRAS-G12D degradation assay (Western Blot), AGS cells; settings: 24 h
How it was run: as §2

Structure (SMILES)	IC50 ([1]; numeric values) [nM]	IC50 ([2]; numeric values) [nM]	DC50 (KRAS-G12D [3]; class symbols) [nM]	Dmax (KRAS-G12D [3]; class symbols) [%]	DC50 (KRAS-G12D [4]) [nM]	Dmax (KRAS-G12D [4]) [%]	IC50 [5] [nM]	DC50 (KRAS-G12D [6]) [nM]	Dmax (KRAS-G12D [6]) [%]	DC50 (KRAS-G12D [3]; numeric values) [nM]	Dmax (KRAS-G12D [3]; numeric values) [%]	IC50 ([1]; class symbols) [nM]	IC50 ([2]; class symbols) [nM]
C#Cc1c(F)ccc2cc(O)cc(-c3ncc4c(N5CC6CCC(C5)N6)nc(OCC5(CN6CCN(CCCCC7CCC8(CC7)CCN(C(=O)c7ccc(Cl)c(N9CCC(=O)NC9=O)c7)CC8)CC6)CC5)nc4c3F)c12 [Example 31, 1-(5-(9-(4-(4-((1-(((4-(3,8-diazabicyclo[3.2.1]octan-3-yl)-7-(8-ethynyl-7-fluoro-3-hydroxynaphthalen-1-yl)-8-fluoropyrido[4,3-d]pyrimidin-2-yl)oxy)methyl)cyclopropyl)methyl)piperazin-1-yl)butyl)-3-azaspiro[5.5]undecane-3-carbonyl)-2-chlorophenyl)dihydropyrimidine-2,4(1H,3H)-dione]	22.2	5.62	≤ 50	80 to 100	–	–	–	–	–	–	–	–	–
C#Cc1c(F)ccc2cc(O)cc(-c3ncc4c(N5CC6CCC(C5)N6)nc(OCC5(CN6CCN(CC7CCC8(CC7)CCN(C(=O)c7ccc(Cl)c(N9CCC(=O)NC9=O)c7)CC8)CC6)CC5)nc4c3F)c12 [Example 6, 1-(5-(9-((4-((1-(((4-(3,8-diazabicyclo[3.2.1]octan-3-yl)-7-(8-ethynyl-7-fluoro-3-hydroxynaphthalen-1-yl)-8-fluoropyrido[4,3-d]pyrimidin-2-yl)oxy)methyl)cyclopropyl)methyl)piperazin-1-yl)methyl)-3-azaspiro[5.5]undecane-3-carbonyl)-2-chlorophenyl)dihydropyrimidine-2,4(1H,3H)-dione]	–	–	≤ 50	80 to 100	2.9	100	5.35	7.91	100	–	–	–	–
C#Cc1c(F)ccc2cc(O)cc(-c3ncc4c(N5CC6CCC(C5)N6)nc(OCC(C)CN5CCN(CC6CCC7(CC6)CCN(C(=O)c6ccc(OC)c(N8CCC(=O)NC8=O)c6)CC7)CC5)nc4c3F)c12 (stereo not drawn) [Example 84, 1-(5-(9-((4-(3-((4-(3,8-diazabicyclo[3.2.1]octan-3-yl)-7-(8-ethynyl-7-fluoro-3-hydroxynaphthalen-1-yl)-8-fluoropyrido[4,3-d]pyrimidin-2-yl)oxy)-2-methylpropyl)piperazin-1-yl)methyl)-3-azaspiro[5.5]undecane-3-carbonyl)-2-methoxyphenyl)dihydropyrimidine-2,4(1H,3H)-dione]	17	2.58	–	–	0.71	99.6	1.3	3.82	92.2	4.67	86.3	–	–
CCc1cccc2cc(O)cc(-c3ncc4c(N5CC6CCC(C5)N6)nc(OCC5(CN6CCN(CC7CCC8(CC7)CCN(C(=O)c7ccc(OC)c(N9CCC(=O)NC9=O)c7)CC8)CC6)CC5)nc4c3F)c12 [Example 20, 1-(5-(9-((4-((1-(((4-(3,8-diazabicyclo[3.2.1]octan-3-yl)-7-(8-ethyl-3-hydroxynaphthalen-1-yl)-8-fluoropyrido[4,3-d]pyrimidin-2-yl)oxy)methyl)cyclopropyl)methyl)piperazin-1-yl)methyl)-3-azaspiro[5.5]undecane-3-carbonyl)-2-methoxyphenyl)dihydropyrimidine-2,4(1H,3H)-dione]	10.5	3.27	≤ 50	80 to 100	0.57	100	–	19.9	100	–	–	–	–
CCc1c(F)ccc2cc(O)cc(-c3ncc4c(N5CC6CCC(C5)N6)nc(OCC5(CN6CCN(CC7CCC8(CC7)CCN(C(=O)c7ccc(OC)c(N9CCC(=O)NC9=O)c7)CC8)CC6)CC5)nc4c3F)c12 [Example 15, 1-(5-(9-((4-((1-(((4-(3,8-diazabicyclo[3.2.1]octan-3-yl)-7-(8-ethyl-7-fluoro-3-hydroxynaphthalen-1-yl)-8-fluoropyrido[4,3-d]pyrimidin-2-yl)oxy)methyl)cyclopropyl)methyl)piperazin-1-yl)methyl)-3-azaspiro[5.5]undecane-3-carbonyl)-2-methoxyphenyl)dihydropyrimidine-2,4(1H,3H)-dione]	–	–	≤ 50	80 to 100	13	99.3	4.06	2.17	99.6	–	–	≤ 50	≤ 50
C#Cc1c(F)ccc2cc(O)cc(-c3ncc4c(N5CC6CCC(C5)N6)nc(OCC5(CN6CCN(CC7CCC8(CC7)CCN(C(=O)c7ccc(C)c(N9CCC(=O)NC9=O)c7)CC8)CC6)CC5)nc4c3F)c12 [Example 36, 1-(5-(9-((4-((1-(((4-(3,8-diazabicyclo[3.2.1]octan-3-yl)-7-(8-ethynyl-7-fluoro-3-hydroxynaphthalen-1-yl)-8-fluoropyrido[4,3-d]pyrimidin-2-yl)oxy)methyl)cyclopropyl)methyl)piperazin-1-yl)methyl)-3-azaspiro[5.5]undecane-3-carbonyl)-2-methylphenyl)dihydropyrimidine-2,4(1H,3H)-dione]	–	–	≤ 50	80 to 100	–	–	1.19	–	–	–	–	–	–
C#Cc1cccc2cc(O)cc(-c3ncc4c(N5CC6CCC(C5)N6)nc(OCC5(CN6CCN(CC7CCC8(CC7)CCN(C(=O)c7ccc(Cl)c(N9CCC(=O)NC9=O)c7)CC8)CC6)CC5)nc4c3F)c12 [Example 57, 1-(5-(9-((4-((1-(((4-(3,8-diazabicyclo[3.2.1]octan-3-yl)-7-(8-ethynyl-3-hydroxynaphthalen-1-yl)-8-fluoropyrido[4,3-d]pyrimidin-2-yl)oxy)methyl)cyclopropyl)methyl)piperazin-1-yl)methyl)-3-azaspiro [5.5]undecane-3-carbonyl)-2-chlorophenyl)dihydropyrimidine-2,4(1H,3H)-dione]	–	–	≤ 50	80 to 100	15	99.5	9.88	0.69	94.2	–	–	≤ 50	≤ 50
C#Cc1c(F)ccc2cc(O)cc(-c3ccc4c(N5CC6CCC(C5)N6)nc(OCC5(CN6CCN(CC7CCC8(CC7)CCN(C(=O)c7ccc(C)c(N9CCC(=O)NC9=O)c7)CC8)CC6)CC5)nc4c3F)c12 [Example 42, 1-(5-(9-((4-((1-(((4-(3,8-diazabicyclo[3.2.1]octan-3-yl)-7-(8-ethynyl-7-fluoro-3-hydroxynaphthalen-1-yl)-8-fluoroquinazolin-2-yl)oxy)methyl)cyclopropyl)methyl)piperazin-1-yl)methyl)-3-azaspiro[5.5]undecane-3-carbonyl)-2-methylphenyl)dihydropyrimidine-2,4(1H,3H)-dione]	8.41	1.75	≤ 50	80 to 100	0.22	100	2.96	11.8	77.4	–	–	–	–
C#Cc1c(F)ccc2cc(O)cc(-c3ncc4c(N5CC6CCC(C5)N6)nc(OCC56CC(CN7CCN(CC8CCC9(CC8)CCN(C(=O)c8ccc(Cl)c(N%10CCC(=O)NC%10=O)c8)CC9)CC7)(C5)C6)nc4c3F)c12 [Example 33, 1-(5-(9-((4-((3-(((4-(3,8-diazabicyclo[3.2.1]octan-3-yl)-7-(8-ethynyl-7-fluoro-3-hydroxynaphthalen-1-yl)-8-fluoropyrido[4,3-d]pyrimidin-2-yl)oxy)methyl)bicyclo[1.1.1]pentan-1-yl)methyl)piperazin-1-yl)methyl)-3-azaspiro[5.5]undecane-3-carbonyl)-2-chlorophenyl)dihydropyrimidine-2,4(1H,3H)-dione]	–	–	≤ 50	80 to 100	–	–	–	–	–	–	–	–	–

Reference: patent publication US20260166159A1, “KRAS G12D DEGRADATION AGENT, AND PREPARATION METHOD AND USE THEREFOR” (LEADINGTAC PHARMACEUTICAL (SHAOXING) CO., LTD., priority 2022, published 2026)
